Results on 3 molecules are retold here after ChEMBL document CHEMBL4229357, “1-Aroylindoline-hydroxamic acids as anticancer agents, inhibitors of HSP90 and HDAC” (Eur J Med Chem, 2018).

For test [1], the target named is T1, Heat shock protein HSP90 (Homo sapiens) (UniProt P07900+P08238). Nature of the test: Inhibition of HSP90 in human HL60 cells assessed as induction of HSP70 expression after 24 hrs by Western blot analysis. The class given is cell-based. Background: In western blotting, separated proteins are transferred to a membrane and probed.
The target in test [2] is T1, Heat shock protein HSP90 (Homo sapiens). Nature of the test: Inhibition of HSP90 in human HL60 cells assessed as downregulation of phosphorylated Akt expression after 24 hrs by Western blot analysis. Type of test: cell-based.
Test [3] shares this target. The test is described as follows: Inhibition of HSP90 in human HL60 cells assessed as downregulation of phosphorylated STAT3 expression after 24 hrs by Western blot analysis. The class given is cell-based.
For test [4] the target is unchanged. The test is described as follows: Inhibition of HSP90 in human HL60 cells assessed as induction of HSP70 expression at 1 uM by Western blot analysis. The class given is cell-based. Particulars: TDE = time-dependent effect.
For test [5] the target is unchanged. The test is described as follows: Inhibition of HSP90 in human HL60 cells assessed as downregulation of phosphorylated Akt expression at 1 uM by Western blot analysis. Type of test: cell-based. Particulars: TDE = time-dependent effect.
The target is the same in test [6]. Nature of the test: Inhibition of HSP90 in human HL60 cells assessed as downregulation of phosphorylated STAT3 expression at 1 uM by Western blot analysis. The note with it: TDE = time-dependent effect. Type of test: cell-based.
Test [7] has as its system A549. Nature of the test: Antiproliferative activity against human A549 cells after 48 hrs by sulforhodamine B assay. Type of test: functional. A general note: The SRB assay estimates cell density from bound dye.
For test [8], the system named is HCT-116. The test is described as follows: Antiproliferative activity against human HCT116 cells after 48 hrs by sulforhodamine B assay. The class given is functional. The note with it: HCT-116, 48 h.
The subject of test [9] is HL-60. Nature of the test: Antiproliferative activity against human HL60 cells after 48 hrs by sulforhodamine B assay. The class given is functional.
The subject of test [10] is NCI-H1975. The test is described as follows: Antiproliferative activity against human NCI-H1975 cells after 48 hrs by sulforhodamine B assay. Type of test: functional. The note with it: NCI-H1975, 48 h.
For test [11], the target named is Histone deacetylase. The class given is protein assay, Homo sapiens.
Test [12] addresses T2, Histone deacetylase (Homo sapiens) (UniProt Q13547+O15379+Q9UBN7+Q92769+Q9UQL6+Q8WUI4+Q9BY41+Q96DB2+P56524+Q9UKV0+Q969S8). Nature of the test: Inhibition of HDAC in human HL60 cells assessed as upregulation of acetyl-alpha-tubulin levels at 1 uM after 24 hrs by Western blot analysis. The class given is cell-based.
In test [13] the target is T2, Histone deacetylase (Homo sapiens). The test is described as follows: Inhibition of HDAC in human HL60 cells assessed as upregulation of acetylated histone H3 levels at 1 uM after 24 hrs by Western blot analysis. Type of test: cell-based.
Test [14] concerns the target Heat shock protein HSP 90-alpha (Homo sapiens, UniProt P07900). The test is described as follows: Inhibition of FITC-geldanamycin binding to HSP90alpha (unknown origin) after 3 hrs by fluorescence polarization assay.

SMILES strings stand for the structures. Calls of active or inactive are those of the source. The rule behind the calls is not given here.

In the case of `CC(C)c1cc(C(=O)N2CCc3cc(NC(=O)CCCCCCC(=O)NO)ccc32)c(O)cc1O`, the inhibition entry in test [1] was “Dose-dependent effect”; in [2], “Dose-dependent effect”; in test [3], “Dose-dependent effect”; in test [4], “Tde”; in test [5], “Tde”; in test [6], “Tde”.
For orientation: GI50 means the concentration at which growth is held to half of that of the control. Higher therefore signals lower sensitivity of the cells. Usually IC50 stands for the concentration needed to halve the response being measured. Consider `COc1c(C)cnc(Cn2cnc3c(Cl)nc(N)nc32)c1C` [BIIB021], for which the GI50 in test [7] (Homo sapiens, A549, 48 h) was found to be 330 nM; in test [8], 150 nM; in test [9] (Homo sapiens, HL-60, 48 h), 590 nM; in test [10] it was 380 nM. The same molecule yielded an IC50 in test [11] of over 1000 nM. Moreover, the inhibition entry in test [12] and in test [13] was “Active” in each case.
In the case of `O=C(CCCCCCC(=O)Nc1ccccc1)NO` [VORINOSTAT], the GI50 came out at 1020 nM in test [7], 150 nM in test [8], 1740 nM in test [9] and 1410 nM in test [10]. The same molecule gave an IC50 in test [14] of over 1000 nM.
